# From ChEMBL document CHEMBL1154509, “Synthesis and in vitro biological activity of retinyl polyhydroxybenzoates, novel hybrid retinoid derivatives” (Bioorg Med Chem Lett, 2009)
# Key:
# [1] = Toxicity against human dermal fibroblasts; type: cell-based, Fibroblast
# [2] = Inhibition of elastase at 10 uM
# [3] = Inhibition of elastase at 5 uM
# [4] = test system: Fibroblast; test: Skin whitening activity in […] assessed as inhibition of melanin formation at 0.001 weight % concentration relative to resveratrol; type: functional
# [5] = Anti-aging activity in human dermal fibroblasts assessed as rate of procollagen formation at 0.0005 weight % concentration relative to retinol; type: functional, Fibroblast
# [6] = target: T1, Tyrosinase (Mus musculus) (UniProt P11344); test: Inhibition of tyrosinase activity in mouse B16/F10 cells at 5 uM relative to control; type: cell-based
# T1 sequence (whole entry): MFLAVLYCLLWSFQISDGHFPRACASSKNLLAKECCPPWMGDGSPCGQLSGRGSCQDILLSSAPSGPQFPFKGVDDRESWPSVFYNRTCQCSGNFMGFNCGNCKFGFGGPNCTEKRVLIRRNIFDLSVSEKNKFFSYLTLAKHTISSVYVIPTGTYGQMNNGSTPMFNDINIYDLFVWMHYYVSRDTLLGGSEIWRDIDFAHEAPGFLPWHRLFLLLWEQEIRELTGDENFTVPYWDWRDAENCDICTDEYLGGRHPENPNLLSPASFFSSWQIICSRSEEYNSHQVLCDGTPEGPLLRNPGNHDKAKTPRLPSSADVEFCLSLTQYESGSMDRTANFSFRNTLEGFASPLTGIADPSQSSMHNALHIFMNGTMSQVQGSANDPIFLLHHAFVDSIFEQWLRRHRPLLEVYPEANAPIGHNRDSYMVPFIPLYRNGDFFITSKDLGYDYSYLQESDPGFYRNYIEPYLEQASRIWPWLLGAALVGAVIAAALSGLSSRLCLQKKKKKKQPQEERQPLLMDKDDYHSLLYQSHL
# [7] = test system: B16-F10; test: Inhibition of rate of melanin formation in mouse B16/F10 cells at 5 uM relative to control; type: functional
# [8] = Toxicity against mouse B16/F10 cells assessed as cell viability at 5 uM relative to control; type: cell-based; settings: read-out: Activity
# [9] = Anti-aging activity in human dermal fibroblasts assessed as inhibition rate of MMP1 expression at 10 uM relative to control; type: functional; settings: Fibroblast
# [10] = Anti-aging activity in human dermal fibroblasts assessed as expression rate of procollagen type 1 formation at 10 uM relative to control; type: functional, Fibroblast
# [11] = Toxicity against human dermal fibroblasts assessed as cell viability at 10 uM relative to control; type: cell-based, Fibroblast; settings: read-out: Activity
# [12] = test system: B16-F10; test: Inhibition of rate of melanin formation in mouse B16/F10 cells at 10 ppm relative to control; type: functional
# [13] = Toxicity against mouse B16/F10 cells assessed as cell viability at 10 ppm relative to control; type: cell-based; settings: read-out: Activity
# [14] = target: T1, Tyrosinase (Mus musculus); test: Inhibition of tyrosinase activity in mouse B16/F10 cells at 10 ppm relative to control; type: cell-based
# [15] = Anti-aging activity in human dermal fibroblasts assessed as inhibition rate of MMP1 expression at 5 uM relative to control; type: functional; settings: Fibroblast
# [16] = target: T2, Tyrosinase (Homo sapiens) (UniProt P14679); test: Inhibition of tyrosinase at 5 uM
# T2 sequence (whole entry): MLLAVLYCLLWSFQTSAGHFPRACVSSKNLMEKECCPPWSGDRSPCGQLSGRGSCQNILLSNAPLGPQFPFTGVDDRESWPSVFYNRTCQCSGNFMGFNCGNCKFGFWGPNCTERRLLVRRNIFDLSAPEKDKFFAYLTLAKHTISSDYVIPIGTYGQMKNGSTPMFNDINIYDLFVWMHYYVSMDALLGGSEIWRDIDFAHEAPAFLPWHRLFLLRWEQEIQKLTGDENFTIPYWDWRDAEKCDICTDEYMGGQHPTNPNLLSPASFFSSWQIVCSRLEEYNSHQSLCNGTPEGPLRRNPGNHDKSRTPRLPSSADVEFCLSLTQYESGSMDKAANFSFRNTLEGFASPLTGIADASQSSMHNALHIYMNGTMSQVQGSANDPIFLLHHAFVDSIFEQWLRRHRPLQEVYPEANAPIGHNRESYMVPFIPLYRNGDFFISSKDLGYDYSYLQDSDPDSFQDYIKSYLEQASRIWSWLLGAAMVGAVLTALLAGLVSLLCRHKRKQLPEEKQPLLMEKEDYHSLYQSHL
# [17] = Anti-aging activity in human dermal fibroblasts assessed as expression rate of procollagen type 1 formation at 5 uM relative to control; type: functional, Fibroblast
# [18] = Antioxidant activity assessed as free radical scavenging activity at 10 uM; type: functional
# [19] = Anti-aging activity in human dermal fibroblasts assessed as rate of procollagen formation at 0.0002 weight % concentration relative to retinol; type: functional, Fibroblast
# [20] = Thermal stability at 40 degC assessed as compound degradation after 4 weeks by HPLC; type: physicochemical
# [21] = Toxicity against human dermal fibroblasts assessed as cell viability at 5 uM relative to control; type: cell-based, Fibroblast; settings: read-out: Activity
# [22] = Antioxidant activity assessed as free radical scavenging activity at 5 uM; type: functional
# [23] = test system: Fibroblast; test: Increase of collagen synthesis in human dermal fibroblasts at 5 uM; type: functional
# [24] = test system: Fibroblast; test: Skin whitening activity in […] assessed as inhibition of melanin formation at 0.0002 weight % concentration relative to resveratrol; type: functional
# [25] = test system: Fibroblast; test: Inhibition of melanogenesis in […] at 5 uM; type: functional
# [26] = test system: Fibroblast; test: Skin whitening activity in […] assessed as inhibition of melanin formation at 0.002 weight % concentration relative to resveratrol; type: functional
# [27] = Anti-aging activity in human dermal fibroblasts assessed as rate of procollagen formation at 0.002 weight % concentration relative to retinol; type: functional, Fibroblast
# [28] = Anti-aging activity in human dermal fibroblasts assessed as expression rate of procollagen type 1 formation at 200 uM relative to control; type: functional, Fibroblast
# [29] = Toxicity against human dermal fibroblasts assessed as cell viability at 200 uM relative to control; type: cell-based, Fibroblast; settings: read-out: Activity
# [30] = Anti-aging activity in human dermal fibroblasts assessed as rate of procollagen formation at 0.001 weight % concentration relative to retinol; type: functional, Fibroblast
# [31] = Anti-aging activity in human dermal fibroblasts assessed as inhibition rate of MMP1 expression at 1 uM relative to control; type: functional; settings: Fibroblast
# [32] = Anti-aging activity in human dermal fibroblasts assessed as expression rate of procollagen type 1 formation at 1 uM relative to control; type: functional, Fibroblast
# [33] = Toxicity against human dermal fibroblasts assessed as cell viability at 1 uM relative to control; type: cell-based, Fibroblast; settings: read-out: Activity
# [34] = Anti-aging activity in human dermal fibroblasts assessed as rate of procollagen formation at 0.005 weight % concentration relative to retinol; type: functional, Fibroblast
# [35] = Anti-aging activity in human dermal fibroblasts assessed as rate of procollagen formation at 0.0001 weight % concentration relative to retinol; type: functional, Fibroblast
smiles,measurement,setting,value
C[C@H]1[C@H](C)CC[C@]2(C(=O)O)CC[C@]3(C)C(=CC[C@@H]4[C@@]5(C)CC[C@H](O)C(C)(C)[C@@H]5CC[C@]43C)[C@H]12 [URSOLIC ACID],IC50,[1],3.5 µM
same,inhibition,[2],14.1%
same,inhibition,[3],10.3%
CC(/C=C/C1=CCCCC1(C)C)=C\C=C\C(C)=C\COC(=O)c1cc(O)c2ccccc2c1O,inhibition (INH),[4],18%
same,IC50,[1],420 µM
same,Activity,[5],37%
COc1cccc(C(=O)OC/C=C(C)/C=C/C=C(C)/C=C/C2=CCCCC2(C)C)c1O,inhibition (INH),[4],22%
same,inhibition,[6],38.1%
same,inhibition at 5 µM,[7],16.2%
same,viability at 5 µM,[8],107%
same,inhibition at 10 µM,[9],16.9%
same,Activity,[10],70%
same,IC50,[1],27 µM
same,Activity,[5],116%
same,viability at 10 µM,[11],126%
COc1cc(/C=C/C(=O)Oc2cc(C)ccc2C(C)C)cc(OC)c1OC,inhibition at 10 ppm,[12],39.3%
same,viability at 10 ppm,[13],95.4%
same,inhibition,[14],46.9%
O=C(O[C@@H]1Cc2c(O)cc(O)cc2O[C@@H]1c1cc(O)c(O)c(O)c1)c1cc(O)c(O)c(O)c1 [EPIGALOCATECHIN GALLATE],inhibition at 10 µM,[9],46.7%
same,viability at 10 µM,[11],95.2%
CC(/C=C/C1=CCCCC1(C)C)=C\C=C\C(C)=C\COC(=O)c1cc(O)c(O)c(O)c1,inhibition,[6],49.6%
same,inhibition at 5 µM,[7],27.5%
same,inhibition at 5 µM,[15],-19.3%
same,inhibition,[16],2.5%
same,Activity,[17],115.9%
same,Activity,[18],62.8%
same,viability at 5 µM,[8],83.9%
same,Activity,[19],91%
same,Stability,[20]; 672 h,Stable
same,IC50,[1],35 µM
same,viability at 5 µM,[21],84.2%
same,inhibition,[2],15.3%
same,Activity,[22],31.1%
same,Activity,[23],13.5%
same,inhibition (INH),[24],73%
same,inhibition at 5 µM,[25],18.6%
same,inhibition,[3],12.3%
CC(=O)Oc1ccccc1C(=O)OC/C=C(C)/C=C/C=C(C)/C=C/C1=CCCCC1(C)C,IC50,[1],150 µM
same,inhibition (INH),[26],32%
same,Activity,[27],61%
CC(/C=C/C1=CCCCC1(C)C)=C\C=C\C(C)=C\COC(=O)c1cc(O)ccc1O,inhibition (INH),[4],95%
same,inhibition,[6],31.3%
same,inhibition at 5 µM,[7],25.8%
same,viability at 5 µM,[8],99.7%
same,inhibition at 10 µM,[9],-32.2%
same,Activity,[10],78.7%
same,IC50,[1],14 µM
same,Activity,[5],55%
same,viability at 10 µM,[11],91.8%
OC[C@H]1O[C@@H](Oc2ccc(O)cc2)[C@H](O)[C@@H](O)[C@@H]1O [ARBUTIN],inhibition,[16],-1.5%
same,inhibition at 5 µM,[25],5.5%
CC1=C(/C=C/C(C)=C/C=C/C(C)=C/C(=O)O)C(C)(C)CCC1 [TRETINOIN],inhibition at 10 µM,[9],59.2%
same,viability at 10 µM,[11],105%
CC1=C(/C=C/C(C)=C/C=C/C(C)=C/CO)C(C)(C)CCC1 [RETINOL],degraded at 672 h,[20]; read-out: Activity,70%
same,IC50,[1],50 µM
same,Activity,[23],33.4%
O=C1O[C@H]([C@@H](O)CO)C(O)=C1O [ASCORBIC ACID],Activity,[28],127.5%
same,Activity,[18],38.6%
same,Activity,[22],19.1%
same,viability at 200 µM,[29],95.4%
COc1cc(O)c(C(=O)OC/C=C(C)/C=C/C=C(C)/C=C/C2=CCCCC2(C)C)c(O)c1,inhibition (INH),[4],95%
same,inhibition,[6],41.9%
same,inhibition at 5 µM,[7],9.5%
same,viability at 5 µM,[8],102%
same,inhibition at 10 µM,[9],-17.4%
same,Activity,[10],89.2%
same,IC50,[1],14 µM
same,Activity,[5],55%
same,viability at 10 µM,[11],92.6%
COc1ccc(O)c(C(=O)OC/C=C(C)/C=C/C=C(C)/C=C/C2=CCCCC2(C)C)c1,inhibition (INH),[4],30%
same,IC50,[1],570 µM
same,Activity,[30],81%
CC(/C=C/C1=CCCCC1(C)C)=C\C=C\C(C)=C\COC(=O)c1c(O)cccc1O,inhibition at 1 µM,[31],-63%
same,inhibition (INH),[4],112%
same,inhibition,[6],45.4%
same,inhibition at 5 µM,[7],12.7%
same,Activity,[32],85.5%
same,viability at 5 µM,[8],102%
same,IC50,[1],14 µM
same,viability at 1 µM,[33],88.1%
same,Activity,[5],102%
COc1cccc(O)c1C(=O)OC/C=C(C)/C=C/C=C(C)/C=C/C1=CCCCC1(C)C,inhibition (INH),[4],28%
same,Activity,[34],54%
same,IC50,[1],230 µM
COc1cc(NC(C)=O)cc(C(=O)OC/C=C(C)/C=C/C=C(C)/C=C/C2=CCCCC2(C)C)c1O,IC50,[1],< 10 µM
same,Activity,[30],15%
CC(/C=C/C1=CCCCC1(C)C)=C\C=C\C(C)=C\COC(=O)c1cccc(O)c1O,inhibition (INH),[4],105%
same,inhibition,[6],36.7%
same,inhibition at 5 µM,[7],18.6%
same,viability at 5 µM,[8],97%
same,Activity,[35],66%
same,IC50,[1],< 10 µM
same,viability at 1 µM,[33],71.8%
Oc1ccc(/C=C/c2cc(O)cc(O)c2)cc1 [RESVERATROL],inhibition,[16],36.2%
same,Activity,[18],16.7%
same,IC50,[1],900 µM
same,Activity,[22],5.6%
same,inhibition at 5 µM,[25],25.5%
CC(/C=C/C1=CCCCC1(C)C)=C\C=C\C(C)=C\COC(=O)c1ccc(O)cc1O,inhibition (INH),[4],41%
same,IC50,[1],120 µM
same,Activity,[30],26%
CC(/C=C/C1=CCCCC1(C)C)=C\C=C\C(C)=C\COC(=O)c1ccccc1O,IC50,[1],150 µM
same,inhibition (INH),[26],34%
same,Activity,[27],46%
